Measurements taken from US20110189758A1, “TRANSFECTION VECTOR” (Anaeropharma Science, Inc., priority 2010, published 2011).
Where two headings read alike, the source gives them in different places.

Tested on: Human breast cancer cell line KPL-1 tumor
Assay type: in vivo, nude mouse

## COc1cccc2c1C(=O)c1c(O)c3c(c(O)c1C2=O)C[C@@](O)(C(=O)CO)C[C@@H]3O[C@H]1C[C@H](N)[C@H](O)[C@H](C)O1 [adriamycine, adriamycin]
Day 0 (grouping)
  Tumor volume, Average: 97.7 mm3
Day 4
  Tumor volume, Average: 133.6 mm3
Day 7
  Tumor volume, Average: 145.4 mm3
Day 11
  Tumor volume, Average: 257.9 mm3
Day 15
  Tumor volume, Average: 415.2 mm3
Day 19
  Tumor volume, Average: 625.2 mm3
Day 21
  Tumor volume, Average: 852.6 mm3
Average tumor volume of group / Group I × 100
  T/C (%) at Day 21: 63.8%
